The subject of one data set is Pancreas_HPAC. Briefly: Cell proliferation assay (ATPlite), HPAC. The class given is cell-based. The conditions noted are these: Homo sapiens, TABLE C, 72 hours, 0.5% fetal bovine serum, ATP content, read-out: IC50 grading, Pancreas_HPAC. As to the method: (§1) A representative number of compounds were assayed against several different cell lines using the cell proliferation assay:
(§2) Cell Proliferation Assay:
(§3) Cancer cell lines were plated at 5,000 to 10,000 per well in 96-well flatted bottomed plates with various concentration of compounds. The cells were incubated with compounds for 72 hours in the presence of 0.5% of fetal bovine serum. Growth inhibition was accessed by adenosine triphosphate (ATP) content assay using Perkin Elmer ATPlite kit. ATPlite is an ATP monitoring system based on firefly luciferase. Briefly, 25 μl of mammalian cell lysis solution was added to 50 μl of phenol red-free culture medium per well to lyse the cells and stabilize the ATP. 25 μl of substrate solution was then added to the well and subsequently the luminescence was measured.
A general note: Cellular ATP, detected with luciferase, serves as a proxy for viable cell number.

The next data set has as its system Pancreas_PANC1. Nature of the data set: Cell proliferation assay (ATPlite), PANC1. The class given is cell-based. The conditions noted are these: Homo sapiens, PANC-1; TABLE C; 72 hours, 0.5% fetal bovine serum, ATP content; read-out: IC50 grading, Pancreas_PANC1. As to the method: as §1, §2, §3
In another data set the test system is Pancreas_BxPC3. Nature of the data set: Cell proliferation assay (ATPlite), BxPC3. The settings on record: Homo sapiens, BXPC-3; TABLE C; 72 hours, 0.5% fetal bovine serum, ATP content; read-out: IC50 grading, Pancreas_BxPC3. The class given is cell-based. As to the method:
as §1, §2, §3

The next data set has as its system Pancreas_CFPAC. Briefly: Cell proliferation assay (ATPlite), CFPAC. The data set is classed as cell-based. The conditions noted are these: TABLE C; 72 hours, 0.5% fetal bovine serum, ATP content; read-out: IC50 grading, Pancreas_CFPAC. As for the experimental part:
as §1, §2, §3

The test system of the next data set is Pancreas_MiaPaCa2. Briefly: Cell proliferation assay (ATPlite), MiaPaCa2. The data set is classed as cell-based. The conditions noted are these: Homo sapiens, MIA PaCa-2; TABLE C; 72 hours, 0.5% fetal bovine serum, ATP content; read-out: IC50 grading, Pancreas_MiaPaCa2. As to the method: as §1, §2, §3

This passage reports melting point and IC50 results from patent US20080221132A1, “Multi-Functional Small Molecules as Anti-Proliferative Agents” (priority 2006, published 2008).

SMILES strings stand for the structures.

By melting point is commonly meant the temperature of the solid-liquid transition. Turning to `Nc1ncnc2c1nc(Sc1cc3c(cc1Br)OCO3)n2CC(=O)NO` [Compound 1, 2-(6-amino-8-(6-bromobenzo[d][1,3]dioxol-5-ylthio)-9H-purin-9-yl)-N-hydroxyacetamide], the melting point was 230 °C (dec.).
The term IC50 denotes the concentration at which inhibition is half-maximal. For `COCCOc1cc2ncnc(Nc3ccc(F)c(Cl)c3)c2cc1NC(=O)CCCCCCC(=O)NO` [Compound 70, N^1-(4-(3-chloro-4-fluorophenylamino)-7-(2-methoxyethoxy)quinazolin-6-yl)-N^8-hydroxyoctanediamide], the IC50 is greater than 10 µM in the data set on Pancreas_HPAC; 1 to 10 µM in the data set with Pancreas_PANC1; 1 to 10 µM with Pancreas_BxPC3; 1 to 10 µM with Pancreas_CFPAC; 1000 to 10000 nM in the data set with Pancreas_MiaPaCa2.
As for `Cc1nc(NCCCCCCC(=O)NO)cc(Nc2ncc(C(=O)Nc3c(C)cccc3Cl)s2)n1` [Compound 24, N-(2-chloro-6-methylphenyl)-2-(6-(7-(hydroxyamino)-7-oxoheptylamino)-2-methylpyrimidin-4-ylamino)thiazole-5-carboxamide], the melting point is 150.7 °C (dec.).
For `Cc1[nH]c(/C=C2\C(=O)Nc3ccc(F)cc32)c(C)c1C(=O)NCCCCCC(=O)NO` [Compound 4, N-(5-(hydroxycarbamoyl)pentyl)5-((Z)-(5-fluoro-2-oxoindolin-3-ylidene)methyl)-2,4-dimethyl-1H-pyrrole-3-carboxamide], the melting point is 209.7 °C (dec.).
Consider `CC(C)(C)c1cnc(CSc2cnc(NC(=O)C3CCN(CCCCCC(=O)NO)CC3)s2)o1` [Compound 3, N-(5-((5-tert-butyloxazol-2-yl)methylthio)thiazol-2-yl)-1-(6-(hydroxyamino)-6-oxohexyl)piperidine-4-carboxamide], for which the melting point is 127 to 130 °C.
Regarding `CC(C)(C)c1cnc(CSc2cnc(NC(=O)C3CCN(CCCC(=O)NO)CC3)s2)o1` [Compound 1, N-(5-((5-tert-butyloxazol-2-yl)methylthio)thiazol-2-yl)-1-(4-(hydroxyamino)-4-oxobutyl)piperidine-4-carboxamide], the melting point was 176 to 180 °C.
Same read-out and setting: the result for `Nc1ccc(C(=O)NCCNC(=O)CCCC(=O)NO)cc1` [Compound 29, N-hydroxy-4-(2-(4-aminobenzamido)-ethylcarbamoyl)butanamide] reads 158.9 to 159.8 °C.
For `COc1cc2ncnc(N[C@H](C)c3ccccc3)c2cc1OCCCCCCC(=O)NO` [Compound 79, (R)—N-hydroxy-7-(7-methoxy-4-(1-phenylethylamino)quinazolin-6-yloxy)heptanamide], the IC50 in the data set on Pancreas_HPAC was greater than 10 µM; in the data set with Pancreas_PANC1, 1 to 10 µM; in the data set with Pancreas_BxPC3, 1 to 10 µM; with Pancreas_CFPAC, 1 to 10 µM; in the data set with Pancreas_MiaPaCa2 it was 1000 to 10000 nM.
`C[C@@H](Nc1ncnc2[nH]c(-c3ccc(OCC(=O)NO)cc3)cc12)c1ccccc1` [Compound 17, (R)—N-hydroxy-2-(4-(4-(1-phenylethylamino)-7H-pyrrolo[2,3-d]pyrimidin-6-yl)phenoxy)acetamide] came in with a melting point of 116.8 to 126.8 °C.
`COc1cc2ncnc(Nc3ccc(F)c(Cl)c3)c2cc1OCCOc1ccc(/C=C/C(=O)NO)cc1` [Compound 66]: the IC50 with Pancreas_HPAC is 1 to 10 µM; with Pancreas_PANC1, 1 to 10 µM; with Pancreas_BxPC3, 1 to 10 µM; in the data set on Pancreas_CFPAC it was greater than 10 µM; with Pancreas_MiaPaCa2, 1000 to 10000 nM.
Take `COc1cc2ncnc(Nc3ccc(F)c(Cl)c3)c2cc1NC(=O)CCCCCCC(=O)NO` [Compound 40]: the IC50 with Pancreas_HPAC lay in the range of 1 to 10 µM; in the data set with Pancreas_PANC1, 1 to 10 µM; with Pancreas_BxPC3, 1 to 10 µM; in the data set on Pancreas_CFPAC, 1 to 10 µM; in the data set on Pancreas_MiaPaCa2 it was 1000 to 10000 nM.
As to `CN(C)CC[C@H](CSc1ccccc1)Nc1ccc(S(=O)(=O)NC(=O)c2ccc(N3CCN(Cc4ccccc4-c4ccc(Cl)cc4)CC3)c(NC(=O)CCCCC(=O)NO)c2)cc1[N+](=O)[O-]` [Compound 8, (R)—N^1-(2-(4-((4′-Chlorobiphenyl-2-yl)methyl)piperazin-1-yl)-5-(4-(4-(dimethylamino)-1-(phenylthio)butan-2-ylamino)-3-nitrophenylsulfonylcarbamoyl)phenyl)-N^6-hydroxyadipamide], the melting point came out at 150 °C.
Regarding `COc1cc2ncnc(N[C@H](C)c3ccccc3)c2cc1OCCCCCC(=O)NO` [Compound 77, (R)—N-hydroxy-6-(7-methoxy-4-(1-phenylethylamino)quinazolin-6-yloxy)-hexanamide], the IC50 in the data set with Pancreas_HPAC is greater than 10 µM; in the data set on Pancreas_PANC1, greater than 10 µM; in the data set on Pancreas_BxPC3, 1 to 10 µM; with Pancreas_CFPAC, 1 to 10 µM; with Pancreas_MiaPaCa2 it was 100 to 1000 nM.
